Each compound was assayed against T1, TBK1 (Homo sapiens, UniProt Q9UHD2) (assay: ADP-Glo Kinase Assay, inhibition activity on TBK1).
T1 construct: purchased Promega (Invitrogen is also named in the same bracket) V4158; PR8031B; V3991 (not assigned to the two kinases)
T1 sequence (Q9UHD2 1-729): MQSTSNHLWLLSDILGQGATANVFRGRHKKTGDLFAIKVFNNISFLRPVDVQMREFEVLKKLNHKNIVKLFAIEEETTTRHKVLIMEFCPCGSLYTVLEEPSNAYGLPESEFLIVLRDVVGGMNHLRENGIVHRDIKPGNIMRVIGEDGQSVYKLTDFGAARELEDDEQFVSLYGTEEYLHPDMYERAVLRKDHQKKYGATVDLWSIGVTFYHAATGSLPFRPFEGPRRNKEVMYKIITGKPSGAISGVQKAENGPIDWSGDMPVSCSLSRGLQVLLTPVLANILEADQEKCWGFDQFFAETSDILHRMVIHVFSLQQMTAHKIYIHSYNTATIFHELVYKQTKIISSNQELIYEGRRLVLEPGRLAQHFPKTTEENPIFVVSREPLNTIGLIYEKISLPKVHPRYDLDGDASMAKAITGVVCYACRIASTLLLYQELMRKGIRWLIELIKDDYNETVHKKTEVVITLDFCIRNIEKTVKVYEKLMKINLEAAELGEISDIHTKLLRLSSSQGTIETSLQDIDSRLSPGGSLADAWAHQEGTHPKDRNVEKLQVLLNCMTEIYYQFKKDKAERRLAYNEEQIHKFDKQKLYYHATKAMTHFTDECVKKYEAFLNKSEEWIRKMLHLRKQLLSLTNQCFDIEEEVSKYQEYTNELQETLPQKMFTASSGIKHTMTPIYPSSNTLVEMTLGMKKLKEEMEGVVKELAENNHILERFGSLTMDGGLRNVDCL
Type: biochemical
Description: Inhibition activities on IKKϵ and TBK1 were evaluated using the compounds of Examples 1 to 250.
The inhibition activities on IKKϵ and TBK1 were measured by a luminometer, IKKϵ/TBK1 Kinase Enzyme System (Promega, Ca# V4158; Invitrogen, PR8031B, Promega, Ca# V3991) and ADP-Glo Kinase Assay using ADP-Glo™ Kinase Analysis Kit (Promega, Ca# V9101) and a kinase reaction buffer [40 mM Tris(pH 7.5), 20 mM MgCl2, 0.1 mg/mL BSA] in accordance with the manufacturer's protocol.

Row | SMILES | IC50
1 | O=C(c1cccs1)N1CC=C(c2c[nH]c3ncc(-c4ccc(S(=O)(=O)C5CC5)cc4)cc23)CC1 [Example 196, (4-(5-(4-(cyclopropylsulfonyl)phenyl)-1H-pyrrolo[2,3-b]pyridin-3-yl)-5,6-dihydropyridin-1(2H)-yl)(thiophen-2-yl)methanone] | 0.25 µM
2 | CCCCCOC(=O)N1CC=C(c2c[nH]c3ncccc23)CC1 [Example 136, Pentyl 4-(1H-pyrrolo[2,3-b]pyridin-3-yl)-5,6-dihydropyridine-1(2H)-carboxylate] | 10.6 µM
3 | CC(C)(C)OC(=O)N1CC=C(c2c[nH]c3ncc(-c4cccc(C#N)c4)cc23)CC1 [Example 169, tert-Butyl 4-(5-(3-cyanophenyl)-1H-pyrrolo[2,3-b]pyridin-3-yl)-5,6-dihydropyridine-1(2H)-carboxylate] | 4.5 µM
4 | O=C(OC1CCCC1)N1CC=C(c2c[nH]c3ncc(-c4ccc(S(=O)(=O)N5CCOCC5)cc4)cc23)CC1 [Example 181, Cyclopentyl 4-(5-(4-(morpholinosulfonyl)phenyl)-1H-pyrrolo[2,3-b]pyridin-3-yl)-5,6-dihydropyridine-1(2H)-carboxylate] | 0.37 µM
5 | CC(C)(C)OC(=O)N1CC=C(c2c[nH]c3ncc(-c4ccc(CN5CCOCC5)s4)cc23)CC1 [Example 153, tert-Butyl 4-(5-(5-(morpholinomethyl)thiophen-2-yl)-1H-pyrrolo[2,3-b]pyridin-3-yl)-5,6-dihydropyridine-1(2H)-carboxylate] | 0.8 µM
6 | COC(=O)c1ccc(-c2cnc3[nH]cc(C4=CCN(C(=O)OC(C)(C)C)CC4)c3c2)cc1 [Example 167, tert-Butyl 4-(5-(4-(methoxycarbonyl)phenyl)-1H-pyrrolo[2,3-b]pyridin-3-yl)-5,6-dihydropyridine-1(2H)-carboxylate] | 1.6 µM
7 | CCCCOC(=O)N1CC=C(c2c[nH]c3ncccc23)CC1 [Example 138, Butyl 4-(1H-pyrrolo[2,3-b]pyridin-3-yl)-5,6-dihydropyridine-1(2H)-carboxylate] | 5.2 µM
8 | COc1ccc(-c2cnc3[nH]cc(C4CCCN(C(=O)OC(C)(C)C)C4)c3c2)cc1OC (stereo not shown) [Example 236, tert-butyl 3-(5-(3,4-dimethoxyphenyl)-1H-pyrrolo[2,3-b]pyridin-3-yl)piperidine-1-carboxylate] | > 10 µM
9 | CCC(CC)OC(=O)N1CC=C(c2c[nH]c3ncccc23)CC1 [Example 142, Pentan-3-yl 4-(1H-pyrrolo[2,3-b]pyridin-3-yl)-5,6-dihydropyridine-1(2H)-carboxylate] | 3 µM
10 | CC(=O)Nc1ccc(N)c(-c2cnc3[nH]cc(C4=CCN(C(=O)NC5CCCC5)CC4)c3c2)c1 [Example 65, 4-(5-(5-Acetamido-2-aminophenyl)-1H-pyrrolo[2,3-b]pyridin-3-yl)-N-cyclopentyl-5,6-dihydropyridine-1(2H)-carboxamide] | 1.9 µM
11 | O=C(NC1CCCC1)N1CC=C(c2c[nH]c3ncc(-c4ccc(Cl)c(C(=O)N5CCOCC5)c4)cc23)CC1 [Example 76, 4-(5-(4-Chloro-3-(morpholine-4-carbonyl)phenyl)-1H-pyrrolo[2,3-b]pyridin-3-yl)-N-cyclopentyl-3,6-dihydropyridine-1(2H)-carboxamide 2,2,2-trifluoroacetate] | 0.29 µM
12 | CNS(=O)(=O)c1ccc(-c2cnc3[nH]c(C)c(C4=CCN(C(=O)NC5CCCC5)CC4)c3c2)cc1 [Example 222, N-cyclopentyl-4-(2-methyl-5-(4-(N-methylsulfamoyl)phenyl)-1H-pyrrolo[2,3-b]pyridin-3-yl)-5,6-dihydropyridine-1(2H)-carboxamide] | 6.8 µM
13 | COc1ccc(-c2cnc3[nH]cc(C4=CCN(C(=O)OC(C)(C)C)CC4)c3n2)cc1OC [Example 230, tert-butyl 4-(2-(3,4-dimethoxyphenyl)-5H-pyrrolo[2,3-b]pyrazin-7-yl)-5,6-dihydropyridine-1(2H)-carboxylate] | 0.32 µM
14 | CS(=O)(=O)Nc1cccc(-c2cnc3[nH]cc(C4=CCN(C(=O)c5cccs5)CC4)c3c2)c1 [Example 201, N-(3-(3-(1-(thiophene-2-carbonyl)-1,2,3,6-tetrahydropyridin-4-yl)-1H-pyrrolo[2,3-b]pyridin-5-yl)phenyl)methansulfonamide] | > 10 µM
15 | COc1ccc(-c2cnc3[nH]cc(C4=CCCN(C(=O)OC(C)(C)C)CC4)c3c2)cc1OC [Example 187, tert-Butyl 4-(5-(3,4-dimethoxyphenyl)-1H-pyrrolo[2,3-b]pyridin-3-yl)-2,3,6,7-tetrahydro-1H-azepine-1-carboxylate] | 3.3 µM
16 | CC(C)OC(=O)N1CC=C(c2c[nH]c3ncccc23)CC1 [Example 139, Isopropyl 4-(1H-pyrrolo[2,3-b]pyridin-3-yl)-5,6-dihydropyridine-1(2H)-carboxylate] | 0.32 µM
17 | COc1ccc(-c2cnc3[nH]cc(C4=CCN(C(=O)OC(C)(C)C)CC4)c3c2)cn1 [Example 161, tert-Butyl 4-(5-(6-methoxypyridin-3-yl)-1H-pyrrolo[2,3-b]pyridin-3-yl)-5,6-dihydropyridine-1(2H)-carboxylate] | 0.6 µM
18 | CC(C)(C)OC(=O)N1CC=C(c2c[nH]c3ncc(-c4ccc(N5CCOCC5)nc4)cc23)CC1 [Example 157, tert-Butyl 4-(5-(6-morpholinopyridin-3-yl)-1H-pyrrolo[2,3-b]pyridin-3-yl)-5,6-dihydropyridine-1(2H)-carboxylate] | 0.36 µM
19 | Cc1[nH]c2ncc(-c3ccc(S(N)(=O)=O)cc3)cc2c1C1=CCN(C(=O)NC2CCCC2)CC1 [Example 221, N-cyclopentyl-4-(2-methyl-5-(4-sulfamoylphenyl)-1H-pyrrolo[2,3-b]pyridin-3-yl)-5,6-dihydropyridine-1(2H)-carboxamide] | 2 µM

Now those with a lower IC50, led by results:

Row | IC50 | SMILES
20 | 0.22 µM | COc1ccc(-c2cnc3[nH]cc(C4=C(F)CN(C(=O)NC5CCCC5)CC4)c3c2)cc1OC [Example 133, N-cyclopentyl-4-(5-(3,4-dimethoxyphenyl)-1H-pyrrolo[2,3-b]pyridin-3-yl)-3-fluoro-5,6-dihydropyridine-1(2H)-carboxamide]
21 | 0.11 µM | O=C(NC1CCCC1)N1CC=C(c2c[nH]c3ncc(-c4ccc(CCN5CCOCC5)cc4)cc23)CC1 [Example 64, N-cyclopentyl-4-(5-(4-(2-morpholinoethyl)phenyl)-1H-pyrrolo[2,3-b]pyridin-3-yl)-5,6-dihydropyridine-1(2H)-carboxamide]
22 | 0.11 µM | COc1ccc(-c2cnc3[nH]cc(C4=CCN(C(=O)OC(C)C)CC4)c3c2)cc1OC [Example 147, Isopropyl 4-(5-(3,4-dimethoxyphenyl)-1H-pyrrolo[2,3-b]pyridin-3-yl)-5,6-dihydropyridine-1(2H)-carboxylate]
23 | 0.097 µM | CNS(=O)(=O)c1cccc(-c2cnc3[nH]cc(C4=CCN(C(=O)OC5CCCC5)CC4)c3c2)c1 [Example 177, Cyclopentyl 4-(5-(3-(N-methylsulfamoyl)phenyl)-1H-pyrrolo[2,3-b]pyridin-3-yl)-5,6-dihydropyridine-1(2H)-carboxylate]
24 | 0.091 µM | O=C(NC1CCCC1)N1CC=C(c2c[nH]c3ncc(-c4cccc(S(=O)(=O)N5CCOCC5)c4)cc23)CC1 [Example 62, N-cyclopentyl-4-(5-(3-(morpholinosulfonyl)phenyl)-1H-pyrrolo[2,3-b]pyridin-3-yl)-5,6-dihydropyridine-1(2H)-carboxamide]
25 | 0.065 µM | O=C(NC1CCCC1)N1CC=C(c2c[nH]c3ncc(-c4ccc(OCCN5CCOCC5)cc4)cc23)CC1 [Example 69, N-cyclopentyl-4-(5-(4-(2-morpholinoethoxy)phenyl)-1H-pyrrolo[2,3-b]pyridin-3-yl)-5,6-dihydropyridine-1(2H)-carboxamide]
26 | 0.064 µM | O=C(NC1CCCC1)N1CC=C(c2c[nH]c3ncc(-c4cccc(OCCN5CCOCC5)c4)cc23)CC1 [Example 68, N-cyclopentyl-4-(5-(3-(2-morpholinoethoxy)phenyl)-1H-pyrrolo[2,3-b]pyridin-3-yl)-5,6-dihydropyridine-1(2H)-carboxamide]
27 | 0.051 µM | CC1CN(C(=O)NC2CCCC2)CC=C1c1c[nH]c2ncc(-c3ccc(S(N)(=O)=O)cc3)cc12 (stereo not shown) [Example 124, N-cyclopentyl-5-methyl-4-(5-(4-sulfamoylphenyl)-1H-pyrrolo[2,3-b]pyridin-3-yl)-5,6-dihydropyridine-1(2H)-carboxamide]
28 | 0.03 µM | CC(C)OC(=O)N1CC=C(c2c[nH]c3ncc(-c4cccc(S(C)(=O)=O)c4)cc23)CC1 [Example 149, Isopropyl 4-(5-(3-(methylsulfonyl)phenyl)-1H-pyrrolo[2,3-b]pyridin-3-yl)-5,6-dihydropyridine-1(2H)-carboxylate]
